Converted amounts (≈) assume the structure as drawn.
How the values were obtained:
Format in all cases: functional
Saccharomyces cerevisiae = experiment: Antimicrobial activity against Saccharomyces cerevisiae ATCC 9763 after 24 hrs by microbroth dilution method; settings: ATCC 9763, 24 h
Cyberlindnera jadinii = experiment: Antimicrobial activity against Candida utilis ATCC 9950 after 24 hrs by microbroth dilution method; settings: Williopsis jadinii, ATCC 9950, 24 h
Candida = experiment: Antimicrobial activity against Candida mycoderma after 24 hrs by microbroth dilution method
Micrococcus luteus = experiment: Antimicrobial activity against Micrococcus luteus ATCC 4698 after 24 hrs by microbroth dilution method; settings: NCTC 2665, 24 h
Candida albicans = experiment: Antimicrobial activity against Candida albicans ATCC 90029 after 24 hrs by microbroth dilution method; settings: ATCC 90029, 24 h
Bacillus spizizenii = experiment: Antimicrobial activity against Bacillus subtilis ATCC 6633 after 24 hrs by microbroth dilution method; settings: ATCC 6633, 24 h
Pseudomonas aeruginosa = experiment: Antimicrobial activity against Pseudomonas aeruginosa ATCC 27853 after 24 hrs by microbroth dilution method; settings: ATCC 27853, 24 h
Escherichia coli = experiment: Antimicrobial activity against Escherichia coli […] after 24 hrs by microbroth dilution method
Shigella dysenteriae [1] = experiment: Ratio of chloromycin MIC to compound MIC for Shigella dysenteriae ATCC 51252
Staphylococcus aureus [2] = experiment: Antimicrobial activity against methicillin-resistant Staphylococcus aureus N315 after 24 hrs by microbroth dilution method; settings: N315, 24 h
Proteus vulgaris = experiment: Antimicrobial activity against Proteus vulgaris ATCC 8427 after 24 hrs by microbroth dilution method; settings: ATCC 8427, 24 h
Shigella dysenteriae [3] = experiment: Ratio of berberine MIC to compound MIC for Shigella dysenteriae ATCC 51252
Staphylococcus aureus [4] = experiment: Antimicrobial activity against Staphylococcus aureus ATCC 25923 after 24 hrs by microbroth dilution method; settings: ATCC 25923, 24 h
Shigella dysenteriae [5] = experiment: Antimicrobial activity against Shigella dysenteriae ATCC 51252 after 24 hrs by microbroth dilution method; settings: ATCC 51252, 24 h

SMILES	MIC80 (Saccharomyces cerevisiae)	MIC80 (Cyberlindnera jadinii)	MIC80 (Candida)	MIC (Micrococcus luteus)	MIC80 (Candida albicans)	MIC (Bacillus spizizenii)	MIC (Pseudomonas aeruginosa)	MIC (Escherichia coli)	Ratio (Shigella dysenteriae [1])	MIC (Staphylococcus aureus [2])	MIC (Proteus vulgaris)	Ratio (Shigella dysenteriae [3])	MIC (Staphylococcus aureus [4])	MIC (Shigella dysenteriae [5])
Clc1ccc(CN(CCBr)CCn2cncn2)cc1Cl	128 µg/mL (≈ 339 µM)	64 µg/mL (≈ 169 µM)	256 µg/mL (≈ 677 µM)	32 µg/mL (≈ 84.6 µM)	32 µg/mL (≈ 84.6 µM)	256 µg/mL (≈ 677 µM)								
COc1ccc2cc3[n+](cc2c1OCCN(CCn1cnc2cc(C)c(C)cc21)Cc1ccc(F)cc1F)CCc1cc2c(cc1-3)OCO2.[Cl-]	16 µg/mL	16 µg/mL	16 µg/mL	16 µg/mL	32 µg/mL	16 µg/mL	8 µg/mL	32 µg/mL	8	32 µg/mL	8 µg/mL	64	32 µg/mL	4 µg/mL
Clc1ccccc1CN(CCBr)CCn1cncn1	256 µg/mL (≈ 745 µM)	128 µg/mL (≈ 372 µM)	256 µg/mL (≈ 745 µM)	64 µg/mL (≈ 186 µM)	64 µg/mL (≈ 186 µM)	256 µg/mL (≈ 745 µM)								
Fc1ccc(CN(CCBr)CCn2nnc3ccccc32)c(F)c1	256 µg/mL (≈ 648 µM)	256 µg/mL (≈ 648 µM)	> 512 µg/mL	256 µg/mL (≈ 648 µM)	> 512 µg/mL	256 µg/mL (≈ 648 µM)	128 µg/mL (≈ 324 µM)	128 µg/mL (≈ 324 µM)		128 µg/mL (≈ 324 µM)	256 µg/mL (≈ 648 µM)		256 µg/mL (≈ 648 µM)	64 µg/mL (≈ 162 µM)
Clc1cccc(CN(CCBr)CCn2cncn2)c1	128 µg/mL (≈ 372 µM)	256 µg/mL (≈ 745 µM)	256 µg/mL (≈ 745 µM)	64 µg/mL (≈ 186 µM)	64 µg/mL (≈ 186 µM)	256 µg/mL (≈ 745 µM)								
Fc1ccc(CN(CCBr)CCn2cnc3ccccc32)c(F)c1	128 µg/mL (≈ 325 µM)	128 µg/mL (≈ 325 µM)	64 µg/mL (≈ 162 µM)	256 µg/mL (≈ 649 µM)	128 µg/mL (≈ 325 µM)	256 µg/mL (≈ 649 µM)	128 µg/mL (≈ 325 µM)	512 µg/mL (≈ 1300 µM)		256 µg/mL (≈ 649 µM)	512 µg/mL (≈ 1300 µM)		128 µg/mL (≈ 325 µM)	64 µg/mL (≈ 162 µM)
Fc1cccc(CN(CCBr)CCn2cncn2)c1	128 µg/mL (≈ 391 µM)	256 µg/mL (≈ 782 µM)	256 µg/mL (≈ 782 µM)	64 µg/mL (≈ 196 µM)	32 µg/mL (≈ 97.8 µM)	256 µg/mL (≈ 782 µM)								
Fc1ccc(CN(CCBr)CCn2cncn2)c(F)c1	128 µg/mL (≈ 371 µM)	256 µg/mL (≈ 742 µM)	256 µg/mL (≈ 742 µM)	32 µg/mL (≈ 92.7 µM)	32 µg/mL (≈ 92.7 µM)	256 µg/mL (≈ 742 µM)								

— ChEMBL document CHEMBL3217727, “Berberine azoles as antimicrobial agents: synthesis, biological evaluation and their interactions with human serum albumin” (Medchemcomm, 2013)
